From US11046709B2, “Fused 1,4-diazepines as BET bromodomain inhibitors” (THE REGENTS OF THE UNIVERSITY OF MICHIGAN, priority 2017, dated 2021)

Key:
recombinant BRD4 BD1 = target: T1, recombinant BRD4 BD1 (Homo sapiens, UniProt O60885); assay: Competitive fluorescence-polarization (FP) binding assay, BRD4 BD1; conditions: competitive FP, Table 6; read-out: IC50 as determinined in FP assays BRD4 BD1
T1 construct: for recombinant BRD4 BD1 and BRD4 BD2 proteins
Procedure: Fluorescence Polarization (FP) competitive binding studies were carried out using a FAM labeled fluorescent probe, see, e.g., Cpd. No. 350 of US 2014/0256706, to determine binding affinities of representative Compounds of the Disclosure for recombinant BRD4 BD1 and BRD4 BD2 proteins. Equilibrium dissociation constants (Kd) values of the fluorescent probe to BRD4 BD1 and BD2 proteins were determined from protein saturation experiments by monitoring the total fluorescence polarization of mixtures composed with the fluorescent probe at a fixed concentration and proteins with increasing concentrations up to full saturation. Serial dilutions of testing proteins were mixed with the fluorescent probe to a final volume of 200 μl in the assay buffer (100 mM phosphate buffer, pH=6.5, 0.01% Triton X-100 (Sigma, 282103) being added right before assays). Final fluorescent probe concentration was 1.5 nM for both proteins. Plates were incubated at room temperature for 30 minutes with gentle shaking to assure equilibrium. FP values in millipolarization units (mP) were measured using the Infinite M-1000 plate reader (Tecan U.S., Research Triangle Park, N.C.) in Microfluor 1 96-well, black, round-bottom plates (Thermo Scientific, Waltham, Mass.) at an excitation wavelength of 485 nm and an emission wavelength of 530 nm. Kd values of the fluorescent probe, which were calculated by fitting the sigmoidal dose-dependent FP increases as a function of protein concentrations using Graphpad Prism 6.0 software (Graphpad Software, San Diego, Calif.), are 5.5 and 3.0 nM to BDR4 BD1 and 2, respectively.
The IC50 and Ki values of compounds were determined in a competitive binding experiment. See US 2014/0256706. Mixtures of 10 μl of the tested compounds in assay buffer with 40% Ethylene Glycol and 190 μl of preincubated protein/probe complex solution in the assay buffer (100 mM potassium phosphate, pH 6.5, 0.01% Triton X-100) were added into assay plates which were incubated at room temperature for 30 minutes with gentle shaking. Final concentrations of proteins were 10 and 6 nM in assays for BRD4 BD1 and BD2, respectively. Final probe concentration is 1.5 nM in both assays. Negative controls containing protein/probe complex only (equivalent to 0% inhibition), and positive controls containing only free probes (equivalent to 100% inhibition), were included in each assay plate. FP values were measured as described above. IC50 values were determined by nonlinear regression fitting of the competition curves. Instead of being calculated from IC50 values as described before. Ki values of competitive inhibitors were obtained directly by nonlinear regression fitting as well, based upon the Kd values of the probe to different proteins, and concentrations of the proteins and probes in the competitive assays (US 2014/0256706; Wang, FEBS Lett. 360:111 (1995); Zhang et al., Analytical Biochemistry, 331:138 (2004)).
Representative compounds in Table 5 were evaluated for their binding affinities to BRD4 BD1 and BD2 proteins using the Competitive Fluorescence-Polarization (FP) Assays described in Example 6, with the data included in Table 6.

MDA-MB-231 = assay: Cell growth inhibition, 4-day proliferation assay, MDA-MB-231; assay type: cell-based; conditions: Homo sapiens, MDA-MB-231; WST-8 assay, Table 7; read-out: Cell growth inhibition (IC50 (nM)) MDA-MB-231
How it was run: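 WST-8 colorimetric read-out (absorbance 450 nm after 1-2 h) after 4-day compound exposure of 3,000-10,000 cells/well at 37 °C; IC50 from variable-slope sigmoid fit of DMSO-normalized signal.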

MOLM-13 = assay: Cell growth inhibition, 4-day proliferation assay, MOLM-13; assay type: cell-based; conditions: Homo sapiens, MOLM-13, WST-8 assay, Table 7; read-out: Cell growth inhibition (IC50 (nM)) MOLM-13
recombinant BRD4 BD2 = target: T2, recombinant BRD4 BD2 (Homo sapiens, UniProt O60885); assay: Competitive fluorescence-polarization (FP) binding assay, BRD4 BD2; conditions: competitive FP, Table 6; read-out: IC50 as determinined in FP assays BRD4 BD2
T2 construct: for recombinant BRD4 BD1 and BRD4 BD2 proteins

SMILES: Cc1c(C#Cc2ccccn2)sc2c1C(c1ccc(Cl)cc1)=N[C@@H](Cc1nnc(C(C)C)o1)c1nnc(C)n1-2 [Compound 135, (S)-2-((4-(4-chlorophenyl)-3,9-dimethyl-2-(pyridin-2-ylethynyl)-6H-thieno[3,2-f][1,2,4]triazolo[4,3-a][1,4]diazepin-6-yl)methyl)-5-isopropyl-1,3,4-oxadiazole]
- IC50 (recombinant BRD4 BD1): 10 nM
- IC50 (MDA-MB-231): 24.5 nM
- IC50 (MOLM-13): 13.8 nM
- IC50 (recombinant BRD4 BD2): 45 nM

SMILES: Cc1c(C#Cc2ccccn2)sc2c1C(c1ccc(Cl)cc1)=N[C@@H](CC(=O)NC1CCNCC1)c1nnc(C)n1-2 [Compound 131, (S)-2-(4-(4-chlorophenyl)-3,9-dimethyl-2-(pyridin-2-ylethynyl)-6H-thieno[3,2-f][1,2,4]triazolo[4,3-a][1,4]diazepin-6-yl)-N-(piperidin-4-yl)acetamide]
- IC50 (recombinant BRD4 BD1): 12.6 nM
- IC50 (MDA-MB-231): 243 nM
- IC50 (MOLM-13): 188 nM
- IC50 (recombinant BRD4 BD2): 26.9 nM

SMILES: Cc1c(C#Cc2ccc(N)nc2)sc2c1C(c1ccc(Cl)cc1)=N[C@@H](CC(N)=O)c1nnc(C)n1-2 [Compound 121, (S)-2-(2-((6-aminopyridin-3-yl)ethynyl)-4-(4-chlorophenyl)-3,9-dimethyl-6H-thieno[3,2-f][1,2,4]triazolo[4,3-a][1,4]diazepin-6-yl)acetamide]
- IC50 (recombinant BRD4 BD1): 10.6 nM
- IC50 (MDA-MB-231): 21.9 nM
- IC50 (MOLM-13): 4.76 nM
- IC50 (recombinant BRD4 BD2): 8.4 nM

SMILES: Cc1nnc(C[C@@H]2N=C(c3ccc(Cl)cc3)c3c(sc(C#Cc4ccccn4)c3C)-n3c(C)nnc32)s1 [Compound 134, (S)-4-(4-chlorophenyl)-3,9-dimethyl-6-((5-methyl-1,3,4-thiadiazol-2-yl)methyl)-2-(pyridin-2-ylethynyl)-6H-thieno[3,2-f][1,2,4]triazolo[4,3-a][1,4]diazepine]
- IC50 (recombinant BRD4 BD1): 7.88 nM
- IC50 (MDA-MB-231): 85.2 nM
- IC50 (MOLM-13): 11.9 nM
- IC50 (recombinant BRD4 BD2): 59.2 nM

SMILES: Cc1c(C#Cc2ccccn2)sc2c1C(c1ccc(Cl)cc1)=N[C@@H](CC(=O)N1CCNCC1)c1nnc(C)n1-2 [Compound 122, (S)-2-(4-(4-chlorophenyl)-3,9-dimethyl-2-(pyridin-2-ylethynyl)-6H-thieno[3,2-f][1,2,4]triazolo[4,3-a][1,4]diazepin-6-yl)-1-(piperazin-1-yl)ethan-1-one]
- IC50 (recombinant BRD4 BD1): 14.2 nM
- IC50 (MDA-MB-231): 19.4 nM
- IC50 (MOLM-13): 15.3 nM
- IC50 (recombinant BRD4 BD2): 34.6 nM

SMILES: Cc1c(C#Cc2cccnc2)sc2c1C(c1ccc(Cl)cc1)=N[C@@H](CC(=O)N1CCNCC1)c1nnc(C)n1-2 [Compound 116, (S)-2-(4-(4-chlorophenyl)-3,9-dimethyl-2-(pyridin-3-ylethynyl)-6H-thieno[3,2-f][1,2,4]triazolo[4,3-a][1,4]diazepin-6-yl)-1-(piperazin-1-yl)ethan-1-one]
- IC50 (recombinant BRD4 BD1): 10.4 nM
- IC50 (MDA-MB-231): 45.3 nM
- IC50 (MOLM-13): 17.3 nM
- IC50 (recombinant BRD4 BD2): 122 nM

SMILES: Cc1c(C#Cc2cccnc2)sc2c1C(c1ccc(Cl)cc1)=N[C@@H](CC(=O)O)c1nnc(C)n1-2 [Compound 112, (S)-2-(4-(4-chlorophenyl)-3,9-dimethyl-2-(pyridin-3-ylethynyl)-6H-thieno[3,2-f][1,2,4]triazolo[4,3-a][1,4]diazepin-6-yl)acetic acid]
- IC50 (recombinant BRD4 BD1): 86.2 nM
- IC50 (MDA-MB-231): 1860 nM
- IC50 (MOLM-13): 644 nM
- IC50 (recombinant BRD4 BD2): 23 nM

SMILES: Cc1c(C#Cc2ccc(N)nc2)sc2c1C(c1ccc(Cl)cc1)=N[C@@H](CC(=O)N1CCN(C)CC1)c1nnc(C)n1-2 [Compound 120, (S)-2-(2-((6-aminopyridin-3-yl)ethynyl)-4-(4-chlorophenyl)-3,9-dimethyl-6H-thieno[3,2-f][1,2,4]triazolo[4,3-a][1,4]diazepin-6-yl)-1-(4-methylpiperazin-1-yl)ethan-1-one]
- IC50 (recombinant BRD4 BD1): 5.3 nM
- IC50 (MDA-MB-231): 9.74 nM
- IC50 (MOLM-13): 9.64 nM
- IC50 (recombinant BRD4 BD2): 4.9 nM

SMILES: CNC(=O)CCn1cc(C#Cc2sc3c(c2C)C(c2ccc(Cl)cc2)=N[C@@H](C)c2nnc(C)n2-3)cn1 [Compound 104, (S)-3-(4-((4-(4-chlorophenyl)-3,6,9-trimethyl-6H-thieno[3,2-f][1,2,4]triazolo[4,3-a][1,4]diazepin-2-yl)ethynyl)-1H-pyrazol-1-yl)-N-methylpropanamide]
- IC50 (recombinant BRD4 BD1): 4.9 nM
- IC50 (MDA-MB-231): 40 ± 10 nM
- IC50 (recombinant BRD4 BD2): 45.1 nM
